Like-named read-outs stand apart in the source and are kept apart here.
Legend:
[1] = tested on: IICR (IP3 induced calcium release) in CHO cells; test: Assay of IICR (IP3 induced calcium release)-inhibiting action; assay type: cell-based, Chinese hamster
Summary of the method: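 CHO cell medium replaced with calcium-containing BSS; compound added 1 min later, then 10 μM ATP after a further 2 min. Percent inhibition of the ATP-evoked rise in intracellular calcium determined at each compound concentration.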

[2] = molecular target: TGase (Cavia porcellus, UniProt P08587); assay type: biochemical; settings: for TG level: level with DMSO control designated as 100
Method: An enzyme reaction solution (0.1 ml) (100 mM HEPES-NaOH, pH 7.5, 1 mM CaCl2, 20 μM monodansyl cadaverine, 0.05 mg/ml N,N-dimethylcasein, 5 μg/ml TGase) was introduced into wells of a 96-well plate (Nunc, 96 Well Black Plate with Clear Bottom). A test compound was added in concentrations of 0.3, 1.0, 3.0, 10, and 30 μM. The solution and the compound were sufficiently mixed while preventing foaming. The plate was set in the fluorescence drug screening system FDSS 3000 (Hamamatsu Photonics K.K.). TGase-inhibiting activity of the compound was calculated by assaying changes in fluorescence wavelength (at 340 nm) per unit time. […] The assay level at which TGase activity decreased by half in the presence of the test compound was designated as TG 50.
Hereafter, the numerals in parentheses written after the TG level, the SOCE level, and the IICR level correspond to the test compound concentrations. The number following the name of each title compound used in the Examples below represents a compound ID number designated arbitrarily by the present inventors.

Compound	IICR-inhibiting activity compared with SOCE-inhibiting activity (in words) [1]	TG-activity-inhibiting action or protein-crosslinking-inhibiting action (in words) [2]	other results
2-(N-2-hydroxy-3-aminopropyl)aminoethyl-5-bromo-2-thienylketone [Example 8853]	higher than SOCE-inhibiting activity	strongly	–
2-(N-t-butylbenzyl)aminoethyl-5-bromo-2-thiophenylketone [Example 8778]	higher than SOCE-inhibiting activity	strongly	–
C=CC(=O)c1ccccc1 [Example 8184, acryloylbenzene]	–	high	–
C=CC(=O)c1ccc(C)cc1 [Example 8185, 4-methyl-1-acryloylbenzene]	–	high	–
C=CC(=O)c1ccc(F)cc1 [Example 8186, 4-fluoro-1-acryloylbenzene]	–	high	–
C=CC(=O)c1cc2c(cc1Br)OCO2 [Example 8200, 2-bromo-4,5-dioxymethylene-1-acryloylbenzene]	–	high	–
C=CC(=O)c1ccc2c(C)cccc2c1 [Example 8211, 1-methyl-6-acryloylnaphthalene]	–	high	–
C=CC(=O)c1ccc2ccccc2c1 [Example 8213, 2-acryloylnaphthalene]	–	high	–
C=CC(=O)c1ccc2c(F)cccc2c1 [Example 8257, 1-fluoro-6-acryloylnaphthalene]	–	high	–
C=CC(=O)c1ccc(Br)cc1 [Example 8266, 1-acryloyl-4-bromobenzene]	–	high	–
C=CC(=O)C(c1ccccc1)c1ccccc1 [Example 8269, Acryloyldiphenylmethane]	–	high	–
CC(C)N(CCC(=O)c1ccc(Cc2ccccc2)cc1)Cc1ccccc1 [Example 8285, 2-(N-isopropylbenzyl)aminoethyl-4-benzylphenylketone]	higher than SOCE-inhibiting activity	strongly	–
C=CC(=O)c1cccc2ccccc12 [Example 8293, 1-acryloylnaphthalene]	–	high	–
CC(C)N(CCC(=O)c1ccccn1)Cc1ccccc1 [Example 8305, 2-(N-isopropylbenzyl)aminoethyl-2-pyridylketone]	higher than SOCE-inhibiting activity	strongly	–
CC(C)N(CCC(=O)c1ccco1)Cc1ccccc1 [Example 8370, 2-(N-isopropylbenzyl)aminoethyl-2-furylketone]	higher than SOCE-inhibiting activity	strongly	–
O=C(CCN(CCO)Cc1ccccc1)c1cnccn1 [Example 8397, 2-(N-benzylhydroxyethyl)aminoethyl-2-pyrazylketone]	higher than SOCE-inhibiting activity	strongly	–
Cc1ccc(C(=O)CCN(CCO)Cc2ccccc2)o1 [Example 8404, 2-(N-benzylhydroxyethyl)aminoethyl-5-methyl-2-furylketone]	higher than SOCE-inhibiting activity	strongly	–
Cc1ccc(C(=O)CCN(Cc2ccccc2)C(C)(C)C)o1 [Example 8405, 2-(N-benzyl-t-butyl)aminoethyl-5-methyl-2-furylketone]	higher than SOCE-inhibiting activity	strongly	–
CCN(CCC(=O)c1ccco1)Cc1ccccc1 [Example 8412, 2-(N-benzylethyl)aminoethyl-2-furylketone]	higher than SOCE-inhibiting activity	strongly	–
CC(C)(C)N(CCC(=O)c1cccs1)Cc1ccccc1 [Example 8638, 2-(N-t-butylbenzyl)aminoethyl-2-thiophenylketone]	higher than SOCE-inhibiting activity	strongly	–
CCc1nccnc1C(=O)CCN(Cc1ccccc1)C(C)C [Example 8656, 2-(N-isopropylbenzyl)aminoethyl-2-(3-ethyl)-pyrazylketone]	higher than SOCE-inhibiting activity	strongly	–
CCc1nccnc1C(=O)CCN(Cc1ccccc1)C(C)(C)C [Example 8658, 2-(N-t-butylbenzyl)aminoethyl-2-(3-ethyl)-pyrazylketone]	higher than SOCE-inhibiting activity	strongly	–
CC(C)N(CCC(=O)c1cc(Cl)sc1Cl)Cc1ccccc1 [Example 8659, 2-(N-isopropylbenzyl)aminomethyl-3-(2,5-dichlorothiophenyl)ketone]	higher than SOCE-inhibiting activity	strongly	–
Cc1nc(C)c(C(=O)CCN(Cc2ccccc2)C(C)C)s1 [Example 8666, 2-(N-benzylisopropyl)aminoethyl-5-(2,4-dimethylthiazolyl)ketone]	higher than SOCE-inhibiting activity	strongly	–
CN(CCC(=O)c1ccncc1)Cc1ccccc1 [Example 8673, 2-(N-methylbenzyl)aminoethyl-4-pyridylketone]	higher than SOCE-inhibiting activity	strongly	–
CC(C)(C)N(CCC(=O)c1cccnc1)Cc1ccccc1 [Example 8702, 2-(N-benzyl-t-butyl)aminoethyl-3-pyridylketone]	higher than SOCE-inhibiting activity	strongly	–
CN(CCO)CCC(=O)c1ccco1 [Example 8707, 2-(N-2-hydroxyethylmethyl)aminoethyl-2-furylketone]	higher than SOCE-inhibiting activity	strongly	–
CC(C)(C)N(CCC(=O)c1nccs1)Cc1ccccc1 [Example 8729, 2-(N-benzyl-t-butyl)aminoethyl-2-thiazolylketone]	higher than SOCE-inhibiting activity	strongly	–
CC(C)(C)N(CCC(=O)c1ccc(Cl)s1)Cc1ccccc1 [Example 8756, 2-(N-t-butylbenzyl)aminoethyl-5-chloro-2-thienylketone]	higher than SOCE-inhibiting activity	strongly	–
Methyl vinylketone [Example 57]	–	–	TG level ([2]; test compound 3 μmol): 84; TG level ([2]; test compound 10 μmol): 94; TG level ([2]; test compound 30 μmol): 37

— US8937091B2 (Japan Science and Technology Agency, priority 2009, dated 2015)
